{"source": "paper PMC9373486", "about": "“Exploring in vitro anti-proliferative and anti-inflammatory activities of Prasachandaeng remedy, and its bioactive compounds” (BMC Complementary Medicine and Therapies, 2022)", "key": {"TNF-α production": {"test_system": "TNF-α production", "assay": "Inhibition of LPS-induced TNF-α production in RAW 264.7 (ELISA)", "type": "cell-based, murine", "details": "Mus musculus, RAW264.7, LPS-induced RAW 264.7, n = 3", "procedure": "The tumor necrosis factor-alpha (TNF-α) is the principal mediator of inflammation in response to gram-negative bacteria. It is mainly produced by LPS-activated mononuclear phagocytes. The TNF- α ELISA can quantify TNF-α in the supernatant of cell culture medium. The assay was carried out using the TNF-alpha ELISA kit (Thermo Fisher® scientific, USA). The murine macrophage cell line (RAW 264.7) was cultured in DMEM medium containing 10% heat-inactivated FBS, 10^4 µg/mL P/S. Firstly, the viable cells were counted using trypan blue exclusion in a haemocytometer. The single cell suspension of murine macrophage cell line was diluted with the medium to provide an optimal density of 10^5. The cell suspension was seeded, in a 100 µL/well, in 96-well plates and incubated at 37 °C with 5% CO2 atmosphere at 95% humidity for 24 h. […] Then, the test sample was added and incubated for 24 h. The control included 2% DMSO solution mixed with the medium, in place of the test samples in the analyses. This protocol was followed according to TNF-α ELISA kit (Thermo Fisher® scientific, USA). […] The concentrations of TNF- α in the wells were measured with a microplate reader at 450 nm. The % inhibition of TNF-α production was calculated using the equation below, and the IC50 values were calculated using the Prism program. […]"}, "[1]": {"assay": "%cytotoxicity reported with the TNF-α assay", "type": "cell-based, murine", "details": "mouse, RAW 264.7 cells, n = 3, read-out: [%cytotoxicity] at conc. 100 µg/mL (converted)", "procedure": "Table 7 Anti-inflammatory on LPS-induced tumor necrosis factor-alpha production of D.cochinchinensis and PSD remedy | column: Inhibition of TNF-α production / %Inhibition and [%cytotoxicity] at conc. 100 µg/mL"}, "[2]": {"test_system": "hepatocarcinoma cell line (HepG2)", "assay": "Cytotoxic activity, antiproliferative SRB assay, HepG2", "type": "cell-based, human", "details": "for IC50: Homo sapiens, HepG2, mean ± SEM, n = 3; for IC50 / Cytotoxicity against HepG2 (in words): SRB assay; for Selective index (SI), HepG2: IC50 of non-cancerous cells (HaCaT) / IC50 of HepG2", "procedure": "(§1) Hepatocellular carcinoma (HepG2; ATTC No. HB-8065) was cultured in Minimum Essential Media (MEM) supplemented with 10% heated-inactivated fetal bovine serum (FBS) and 1% penicillin–streptomycin (P/S). Cholangiocarcinoma cell line (KKU-M156) was cultured in HAM's F12 supplemented with 10% FBS, 1% P/S, and 12.5 mM HEPES. In addition, one non-cancerous human keratinocyte cell line (HaCaT; No. 300493-SF) was cultured in Dulbecco's Modified Eagle Medium (DMEM) supplemented with 10% FBS and 1% P/S [13].\n(§2) This assay followed the previously described protocol. The various concentrations (1, 10, 50, and 100 µg/mL) of the crude extracts were investigated against two human cancer cell lines and one non-cancerous cell line. The cell lines were washed with PBS and the cells were detached with 0.025% trypsin–EDTA to make a single cell suspension. A 5 mL medium was then added to the flask to stop the trypsin–EDTA activity. The viable cells were counted by trypan blue exclusion in a haemocytometer. A single-cell suspensions density of HepG2, KKU-M156, and HaCaT were diluted with each medium to give optimal densities of 2 × 10^3, 3 × 10^3, and 8 × 10^3 cells/well, respectively. The 100 µL/well of these cell suspensions were seeded in 96-well plates and incubated at 37 °C with 5% CO2 at 95% humidity for 24 h. Then, 100 µL of a sample solution was added to each well. The control was the medium mixed with 2% DMSO. The 96-well plates were incubated at 37 °C with 5% CO2 at 95% humidity for 72 h. The mixture in the well was removed and washed with 200 µL fresh medium. The 96-well plate was further incubated for 72 h, then the cell in 96-well plates was fixed with 40%TCA and washed with water five times. Finally, the fixed cell in the 96-well plate was strained with Sulforhodamine B sodium salt and the percentage of inhibition of cell growth was measured colorimetrically using the SRB assay. The herbal extract and pure compounds were considered to have potent cytotoxicity if the IC50 values were ≤ 20 and ≤ 4 µg/mL, respectively. The % inhibition of cell growth was calculated by the equation shown below, and the IC50 values were calculated using the Prism program.\n(§3) %Inhibitionofcellgrowth=MeanofODcontrol-MeanofODsample÷[…]×100 where: OD control = OD of medium with 2% of DMSO and OD sample = OD of crude extract.\n(§4) SelectivityindexSI=IC50ofnon-cancerouscellline÷IC50ofcancercellline"}, "[3]": {"test_system": "cholangiocarcinoma cell line (KKU-M156)", "assay": "Cytotoxic activity, antiproliferative SRB assay, KKU-M156", "type": "cell-based, human", "details": "for IC50: Homo sapiens, KKU-M156, mean ± SEM, n = 3; for IC50 / Cytotoxicity against KKU-M156 (in words): SRB assay; for Selective index (SI), KKU-M156: IC50 of non-cancerous cells (HaCaT) / IC50 of KKU-M156", "procedure": "as §1, §2, §3, §4"}, "[4]": {"test_system": "human keratinocyte cell line (HaCaT)", "assay": "Cytotoxic activity, antiproliferative SRB assay, non-cancerous HaCaT", "type": "cell-based", "details": "mean ± SEM, n = 3", "procedure": "as §1, §2, §3"}}, "note": "Where a name gives a salt, the structure may show the parent alone."}
{"smiles": "CC(=O)Nc1ccc(O)cc1", "note": "[Acetaminophen]", "values": [{"measurement": "inhibition at 100 µg/mL", "setting": "TNF-α production; 100 µg/mL, read-out: %Inhibition of TNF-α production at conc. 100 µg/mL", "result": "18.7 ± 1.93", "unit": "%"}, {"measurement": "IC50", "setting": "TNF-α production", "result": "> 100", "unit": "µg/mL"}, {"measurement": "cytotoxicity at 100 µg/mL", "setting": "[1]", "result": 59.2, "unit": "%"}]}
{"smiles": "COc1cc(OC)c(CCC(=O)c2ccc(O)cc2)c(OC)c1", "note": "[Compound 1, 1-(4-hydroxyphenyl)-3-(2,4,6-trimethoxyphenyl)propan-1-one]", "values": [{"measurement": "IC50", "setting": "[2]", "result": "20 ± 0.46", "unit": "µg/mL"}, {"measurement": "Selective index (SI), HepG2", "setting": "[2]", "result": 4.3}, {"measurement": "Cytotoxicity against HepG2 (in words)", "setting": "[2]", "result": "moderate cytotoxicity"}, {"measurement": "IC50", "setting": "[3]", "result": "21.3 ± 3.17", "unit": "µg/mL"}, {"measurement": "Selective index (SI), KKU-M156", "setting": "[3]", "result": 4.1}, {"measurement": "Cytotoxicity against KKU-M156 (in words)", "setting": "[3]", "result": "moderate cytotoxicity"}, {"measurement": "IC50", "setting": "[4]", "result": "86.1 ± 2.13", "unit": "µg/mL"}]}
{"smiles": "COc1ccc(CCC(=O)c2ccc(O)cc2)c(OC)c1", "note": "[Compound 2]", "values": [{"measurement": "IC50", "setting": "[2]", "result": "20.7 ± 0.49", "unit": "µg/mL"}, {"measurement": "Selective index (SI), HepG2", "setting": "[2]", "result": 3.2}, {"measurement": "Cytotoxicity against HepG2 (in words)", "setting": "[2]", "result": "moderate cytotoxicity"}, {"measurement": "IC50", "setting": "[3]", "result": "33.2 ± 2.1", "unit": "µg/mL"}, {"measurement": "Selective index (SI), KKU-M156", "setting": "[3]", "result": 2.0}, {"measurement": "Cytotoxicity against KKU-M156 (in words)", "setting": "[3]", "result": "moderate cytotoxicity"}, {"measurement": "IC50", "setting": "[4]", "result": "66 ± 0.68", "unit": "µg/mL"}]}
{"smiles": "COc1ccc(C[C@]2(O)COc3cc(O)cc(O)c3C2=O)cc1", "note": "[Compound 3, (3S)-3,5,7-trihydroxy-3-[(4-methoxyphenyl)methyl]-2H-chromen-4-one]", "values": [{"measurement": "IC50", "setting": "[2]", "result": "25.8 ± 1.56", "unit": "µg/mL"}, {"measurement": "Selective index (SI), HepG2", "setting": "[2]", "result": 1.8}, {"measurement": "Cytotoxicity against HepG2 (in words)", "setting": "[2]", "result": "moderate cytotoxicity"}, {"measurement": "IC50", "setting": "[3]", "result": "7.12 ± 0.56", "unit": "µg/mL"}, {"measurement": "Selective index (SI), KKU-M156", "setting": "[3]", "result": 6.5}, {"measurement": "Cytotoxicity against KKU-M156 (in words)", "setting": "[3]", "result": "moderate cytotoxicity"}, {"measurement": "IC50", "setting": "[4]", "result": "46.5 ± 0.88", "unit": "µg/mL"}]}
{"smiles": "CC[C@]1(O)C[C@H]2CN(CCc3c([nH]c4ccccc34)[C@@](C(=O)OC)(c3cc4c(cc3OC)N(C=O)[C@H]3[C@@](O)(C(=O)OC)[C@H](OC(C)=O)[C@]5(CC)C=CCN6CC[C@]43[C@@H]65)C2)C1", "note": "[Vincristine sulfate, reference compound]", "values": [{"measurement": "IC50", "setting": "[2]", "result": "0.012 ± 0.0005", "unit": "µg/mL"}, {"measurement": "Selective index (SI), HepG2", "setting": "[2]", "result": 0.00058}, {"measurement": "IC50", "setting": "[3]", "result": "0.0026 ± 0.001", "unit": "µg/mL"}, {"measurement": "IC50", "setting": "[4]", "result": "7e-06", "unit": "µg/mL"}]}
